Test results from ChEMBL document CHEMBL5528074 (J Med Chem, 2024).
Values belong to the compound of their own block, whether it stands above or below them. The source made the active and inactive calls. The rule behind the calls is not given here.

Columns and labels:
[1] = target: T1, G-protein coupled receptor 183 (Homo sapiens, UniProt P32249)
Description: Antagonist activity at GPR183 (unknown origin) transfected in HEK293 cells incubated for 30 mins by Glosensor cAMP assay

[2] = Half life in C57BL/6 mouse at 1 mg/kg, iv measured upto 24 hrs by LC-MS/MS analysis; format: ADME, organism-based; conditions: in vivo
[3] = Cmax in C57BL/6 mouse at 1 mg/kg, iv measured upto 24 hrs by LC-MS/MS analysis; format: ADME, organism-based; conditions: in vivo
[4] = AUC infinity in C57BL/6 mouse at 1 mg/kg, iv measured upto 24 hrs by LC-MS/MS analysis; format: ADME, organism-based; conditions: in vivo
[5] = Apparent volume of distribution in C57BL/6 mouse at 1 mg/kg, iv measured upto 24 hrs by LC-MS/MS analysis; format: ADME, organism-based; conditions: in vivo, read-out: Vz
[6] = Clearance in C57BL/6 mouse at 1 mg/kg, iv measured upto 24 hrs by LC-MS/MS analysis; format: ADME, organism-based; conditions: in vivo
[7] = Half life in C57BL/6 mouse at 3 mg/kg, po measured upto 24 hrs by LC-MS/MS analysis; format: ADME, organism-based; conditions: in vivo
[8] = Cmax in C57BL/6 mouse at 3 mg/kg, po measured upto 24 hrs by LC-MS/MS analysis; format: ADME, organism-based; conditions: in vivo
[9] = AUC infinity in C57BL/6 mouse at 3 mg/kg, po measured upto 24 hrs by LC-MS/MS analysis; format: ADME, organism-based; conditions: in vivo
[10] = Oral bioavailability in C57BL/6 mouse at 3 mg/kg measured upto 24 hrs by LC-MS/MS analysis; format: ADME, organism-based; conditions: in vivo
[11] = Metabolic stability in human liver microsomes assessed as half life at 10 uM incubated for 60 mins in presence of NADPH/UDPGA by LC-MS/MS analysis; format: ADME, Microsome; conditions: 1 h
[12] = Metabolic stability in mouse liver microsomes assessed as half life at 10 uM incubated for 60 mins in presence of NADPH/UDPGA by LC-MS/MS analysis; format: ADME, Microsome; conditions: 1 h
[13] = Metabolic stability in dog liver microsomes assessed as half life at 10 uM incubated for 60 mins in presence of NADPH/UDPGA by LC-MS/MS analysis; format: ADME, Canis lupus familiaris, Microsome
[14] = Metabolic stability in monkey liver microsomes assessed as half life at 10 uM incubated for 60 mins in presence of NADPH/UDPGA by LC-MS/MS analysis; format: ADME, Macaca mulatta, Microsome; conditions: rhesus monkey, 1 h
[15] = target: T1, G-protein coupled receptor 183; experiment: Antagonist activity at GPR183 (unknown origin) transfected in HEK293 cells assessed as reversal of 7alpha,25-Dihydroxycholesterol induced cAMP reduction incubated for 30 mins by Glosensor cAMP assay; format: functional, cell-based
[16] = target: T1, G-protein coupled receptor 183; experiment: Antagonist activity at GPR183 (unknown origin) transfected in HEK293 cells cotransfected with CRE-luciferase plasmid assessed as restoration of luciferase activity preincubated for 30 mins followed by 7alpha,25-dihydroxycholesterol induction and measured after 4 hrs by dual luciferase assay; format: functional, cell-based
[17] = target: T1, G-protein coupled receptor 183; experiment: Antagonist potency at GPR183 (unknown origin) transfected in HEK293 cells by schild plot analysis; format: cell-based; conditions: read-out: pA2 (converted)
[18] = target: T1, G-protein coupled receptor 183; experiment: Antagonist activity at GPR183 (unknown origin) transfected in HEK293 cells co-expressing LgBiT-fused SmBiT-beta-arrestin assessed as reduction in beta-arrestin recruitment using nanoluciferase as substrate incubated for 30 mins by bioluminescence based NanoBiT assay; format: functional, cell-based
[19] = Metabolic stability in rat liver microsomes assessed as compound remaining at 1 uM incubated for 60 mins in presence of NADPH/UDPGA by LC-MS/MS analysis; format: ADME, Microsome; conditions: read-out: Stability
[20] = Metabolic stability in mouse liver microsomes assessed as compound remaining at 1 uM incubated for 60 mins in presence of NADPH/UDPGA by LC-MS/MS analysis; format: ADME, Microsome; conditions: 1 h
[21] = Metabolic stability in dog liver microsomes assessed as compound remaining at 1 uM incubated for 60 mins in presence of NADPH/UDPGA by LC-MS/MS analysis; format: ADME, Canis lupus familiaris, Microsome; conditions: read-out: Stability
[22] = Metabolic stability in monkey liver microsomes assessed as compound remaining at 1 uM incubated for 60 mins in presence of NADPH/UDPGA by LC-MS/MS analysis; format: ADME, Macaca mulatta, Microsome; conditions: rhesus monkey, 1 h
[23] = Metabolic stability in human liver microsomes assessed as compound remaining at 1 uM incubated for 60 mins in presence of NADPH/UDPGA by LC-MS/MS analysis; format: ADME, Microsome; conditions: 1 h
U-937 [24] = experiment: Antimigratory activity against human U-937 cells assessed as inhibition of 7alpha,25-dihydroxycholesterol induced cell migration by CCK-8 method; format: functional, cell-based
U-937 [25] = experiment: Antiinflammatory activity in human U-937 cells assessed as reversal of 7alpha,25-dihydroxycholesterol induced TNFA gene expression at 0.1 to 10 uM incubated for 24 hrs by qPCR analysis; format: functional, cell-based; conditions: dose 0.1-10 µM
U-937 [26] = experiment: Antiinflammatory activity in human U-937 cells assessed as reversal of 7alpha,25-dihydroxycholesterol induced IL1B gene expression at 0.1 to 10 uM incubated for 24 hrs by qPCR analysis; format: functional, cell-based; conditions: dose 0.1-10 µM
U-937 [27] = experiment: Cytotoxicity against human U-937 cells measured after 72 hrs by CCK8 method; format: functional, cell-based
Mus musculus [28] = experiment: Antiinflammatory activity against C57BL/6 mouse assessed as mitigation of DSS induced body weight loss administered as po measured for 10 days; format: functional, organism-based; conditions: dose 3-10 mg/kg, time 10.0 day
Mus musculus [29] = experiment: Antiinflammatory activity against DSS-induced colitis C57BL/6 mouse model assessed as reduction in disease activity index (DAI) score at 3 mg/kg, po measured for 8 days; format: functional, organism-based; conditions: time 8.0 day
Mus musculus [30] = experiment: Antiinflammatory activity against DSS-induced colitis C57BL/6 mouse model assessed as amelioration of inflammatory response at 3 to 10 mg/kg, po by H and E staining based analysis; format: functional, organism-based; conditions: dose 3-10 mg/kg
Mus musculus [31] = experiment: Antiinflammatory activity against DSS-induced colitis C57BL/6 mouse model assessed as amelioration of colonic damage at 3 to 10 mg/kg, po by H and E staining based analysis; format: functional, organism-based; conditions: dose 3-10 mg/kg
Mus musculus [32] = experiment: Antiinflammatory activity against DSS-induced colitis C57BL/6 mouse model assessed as reduction in Tnf-alpha expression in colon at 3 to 10 mg/kg, po; format: functional, organism-based; conditions: dose 3-10 mg/kg
Mus musculus [33] = experiment: Antiinflammatory activity against DSS-induced colitis C57BL/6 mouse model assessed as reduction in Il1-beta expression in colon at 3 to 10 mg/kg, po; format: functional, organism-based; conditions: dose 3-10 mg/kg
Mus musculus [34] = experiment: Antiinflammatory activity against DSS-induced colitis C57BL/6 mouse model assessed as increase in CREB phosphorylation level at 3 to 10 mg/kg, po by immunohistochemical analysis; format: functional, organism-based; conditions: dose 3-10 mg/kg
[35] = Toxicity in C57BL/6 mouse assessed as effect on heart at 3 mg/kg, po by H and E staining based analysis; format: organism-based; conditions: in vivo
[36] = Toxicity in C57BL/6 mouse assessed as effect on liver at 3 mg/kg, po by H and E staining based analysis; format: organism-based; conditions: in vivo
[37] = Toxicity in C57BL/6 mouse assessed as effect on spleen at 3 mg/kg, po by H and E staining based analysis; format: organism-based; conditions: in vivo
[38] = Toxicity in C57BL/6 mouse assessed as effect on lung at 3 mg/kg, po by H and E staining based analysis; format: organism-based; conditions: in vivo
[39] = Toxicity in C57BL/6 mouse assessed as effect on kidney at 3 mg/kg, po by H and E staining based analysis; format: organism-based; conditions: in vivo
[40] = Toxicity in C57BL/6 mouse assessed as drug tolerance at 3 mg/kg, po by H and E staining based analysis; format: organism-based; conditions: in vivo
[41] = Metabolic stability in mouse liver microsomes assessed as intrinsic clearance; format: ADME, Microsome; conditions: read-out: CLH
[42] = target: T1, G-protein coupled receptor 183; experiment: Antagonist activity at GPR183 (unknown origin) incubated for 30 mins by calcium mobilization assay; format: functional

T1 sequence (P32249 whole entry): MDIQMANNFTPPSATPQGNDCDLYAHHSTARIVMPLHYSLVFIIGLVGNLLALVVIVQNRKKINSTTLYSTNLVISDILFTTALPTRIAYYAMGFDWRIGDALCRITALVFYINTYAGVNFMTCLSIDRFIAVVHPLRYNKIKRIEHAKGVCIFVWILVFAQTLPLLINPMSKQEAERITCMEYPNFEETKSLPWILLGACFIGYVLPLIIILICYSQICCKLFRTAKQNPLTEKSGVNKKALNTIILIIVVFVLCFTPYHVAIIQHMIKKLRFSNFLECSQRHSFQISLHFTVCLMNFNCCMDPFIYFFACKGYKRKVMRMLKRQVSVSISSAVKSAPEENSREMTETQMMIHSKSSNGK

IC50 [1]: 43.6 nM
SMILES: Nc1nc2ccc(C(=O)N3CCN(C(=O)/C=C/c4ccc5c(c4)OC(F)(F)O5)CC3)cc2s1

half-life [2]: 1.61 h
Cmax [3]: 828 ng/mL
AUC(0-inf) [4]: 1920 ng·h/mL
Vd [5]: 1.21 L/kg
clearance [6]: 8.72 mL/min/kg
half-life [7]: 2.24 h
Cmax [8]: 817 ng/mL
AUC(0-inf) [9]: 4090 ng·h/mL
bioavailability [10]: 71.1%
t1/2 [11]: 2.52 h
t1/2 [12]: 2.35 h
half-life at 10 µM [13]: 6.42 h
t1/2 [14]: 1.36 h
IC50 [15]: 0.82 nM
IC50 [16]: 1.83 nM
Kb [17]: 0.617 nM
IC50 [18]: 0.88 nM
remaining at 1 h, 1 µM [19]: 95.9%
Stability [20]: 96.2%
remaining at 1 h, 1 µM [21]: 96.5%
Stability [22]: 91.5%
Stability [23]: 98.4%
IC50 (U-937 [24]): 0.73 nM
IC50 [1]: 0.82 nM
SMILES: Nc1nc2ccc(C(=O)N3CCN(C(=O)/C=C/c4ccc(Br)cc4)CC3)cc2s1
Activity (U-937 [25]): Active
Activity (U-937 [26]): Active
Activity (U-937 [27]): inactive
Activity (Mus musculus [28]): Dose-Dependent Effect
Activity (Mus musculus [29]): Active
Activity (Mus musculus [30]): Active
Activity (Mus musculus [31]): Active
Activity (Mus musculus [32]): Active
Activity (Mus musculus [33]): Active
Activity (Mus musculus [34]): Active
Activity [35]: Non-Toxic
Activity [36]: Non-Toxic
Activity [37]: Non-Toxic
Activity [38]: Non-Toxic
Activity [39]: Non-Toxic
Activity [40]: Non-Toxic

IC50 [1]: 74.5 nM
SMILES: Nc1nc2ccc(C(=O)N3CCN(C(=O)/C=C/c4ccc(C(F)(F)F)c(Cl)c4)CC3)cc2s1

The next lines start with the compound.

SMILES: O=C(/C=C/c1ccc(Br)cc1)N1CCN(C(=O)c2ccc3nc(C(F)(F)F)sc3c2)CC1
IC50 [1]: 2.54 nM

SMILES: Cc1nc2ccc(C(=O)N3CCN(C(=O)/C=C/c4ccc(Br)cc4)CC3)cc2[nH]1
IC50 [1]: > 10000 nM

SMILES: COc1ccc(C(=O)N2CCN(C(=O)/C=C/c3ccc(Br)cc3)CC2)cc1
half-life [2]: 1.17 h
Cmax [3]: 612 ng/mL
AUC(0-inf) [4]: 966 ng·h/mL
Vd [5]: 1.75 L/kg
clearance [6]: 17.3 mL/min/kg
half-life [7]: 2.19 h
Cmax [8]: 640 ng/mL
AUC(0-inf) [9]: 2070 ng·h/mL
bioavailability [10]: 71.4%
IC50 (U-937 [24]): 4.5 nM
microsomal CLint [41]: 46 µL/min/mg

SMILES: COc1ccc(NC(=O)C(F)(F)C2CCN(C(=O)/C=C/c3ccc(Br)cc3)CC2)cc1
IC50 [1]: 5.7 nM

SMILES: N#Cc1ccc(/C=C/C(=O)N2CCN(C(=O)c3ccc4nc(N)sc4c3)CC2)cc1
IC50 [1]: 260 nM

SMILES: COc1cc(C(C)NC(=O)Cc2c(C)nc(C)[nH]c2=O)cc(OC)c1OC (stereo not drawn)
IC50 [42]: 8.31 nM
